{"source": "the supplement of paper PMC11952222", "about": "“Development and comparison of single FLT3-inhibitors to dual FLT3/TAF1-inhibitors as an anti-leukemic approach” (PLOS One, 2025)", "note": "± gives the standard deviation of the averaged measurements."}
{"tested_on": "DU4475", "test": "cell viability (CellTiter-Glo luminescence) relative to DMSO (fraction of DMSO control); higher = higher signal (more live cells for CellTiter-Glo)", "conditions": "0.01 µM; 72 h", "protocol": "(§1)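 MOLM13, DU4475, HDQP1 and IGROV1 cells were treated with compounds in 384-well format for 72 h (KASUMI-1 in 96-well plates, RPMI + 10% FCS, 72 h). Viability was read with CellTiter-Glo and cell death with CellTox Green, both normalised to DMSO vehicle. Doses ranged 0.001-30 µM.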"}
{"smiles": "CC(C)(C)c1cc(NC(=O)Nc2ccc(-c3cn4c(n3)sc3cc(OCCN5CCOCC5)ccc34)cc2)no1", "note": "[quizartinib]", "cell viability": "1 ± 0.03"}
{"smiles": "C=CCCn1cc(-c2cc(C(=O)N3CCOCC3)cc3c2ncn3C)c2cc[nH]c2c1=O", "note": "[GNE-371]", "cell viability": "1.01 ± 0.017"}
{"smiles": "Cc1cc(-c2cc(NC(=O)c3ccc(C(C)(C)C)cc3)[nH]n2)ccn1", "note": "[3i-1246]", "cell viability": "1 ± 0.023"}
{"smiles": "CC(C)(C)c1ccc(C(=O)Nc2cc(-c3ccccc3)n[nH]2)cc1", "note": "[3i-1247]", "cell viability": "1.02 ± 0.037"}
{"smiles": "Cn1cc(-c2cc(NC(=O)c3ccc(C(C)(C)C)cc3)n[nH]2)ccc1=O", "note": "[3i-1248]", "cell viability": "1.01 ± 0.029"}
{"tested_on": "DU4475", "test": "cell viability (CellTiter-Glo luminescence) relative to DMSO (fraction of DMSO control); higher = higher signal (more live cells for CellTiter-Glo)", "conditions": "0.1 µM; 72 h", "protocol": "as §1"}
{"smiles": "CC(C)(C)c1cc(NC(=O)Nc2ccc(-c3cn4c(n3)sc3cc(OCCN5CCOCC5)ccc34)cc2)no1", "note": "[quizartinib]", "cell viability": "0.813 ± 0.038"}
{"smiles": "C=CCCn1cc(-c2cc(C(=O)N3CCOCC3)cc3c2ncn3C)c2cc[nH]c2c1=O", "note": "[GNE-371]", "cell viability": "1.01 ± 0.026"}
{"smiles": "Cc1cc(-c2cc(NC(=O)c3ccc(C(C)(C)C)cc3)[nH]n2)ccn1", "note": "[3i-1246]", "cell viability": "1 ± 0.048"}
{"smiles": "CC(C)(C)c1ccc(C(=O)Nc2cc(-c3ccccc3)n[nH]2)cc1", "note": "[3i-1247]", "cell viability": "0.998 ± 0.027"}
{"smiles": "Cn1cc(-c2cc(NC(=O)c3ccc(C(C)(C)C)cc3)n[nH]2)ccc1=O", "note": "[3i-1248]", "cell viability": "1.01 ± 0.031"}
{"tested_on": "DU4475", "test": "cell viability (CellTiter-Glo luminescence) relative to DMSO (fraction of DMSO control); higher = higher signal (more live cells for CellTiter-Glo)", "conditions": "0.3 µM; 72 h", "protocol": "as §1"}
{"smiles": "CC(C)(C)c1cc(NC(=O)Nc2ccc(-c3cn4c(n3)sc3cc(OCCN5CCOCC5)ccc34)cc2)no1", "note": "[quizartinib]", "cell viability": "0.336 ± 0.06"}
{"smiles": "C=CCCn1cc(-c2cc(C(=O)N3CCOCC3)cc3c2ncn3C)c2cc[nH]c2c1=O", "note": "[GNE-371]", "cell viability": "1.02 ± 0.023"}
{"smiles": "Cc1cc(-c2cc(NC(=O)c3ccc(C(C)(C)C)cc3)[nH]n2)ccn1", "note": "[3i-1246]", "cell viability": "0.983 ± 0.023"}
{"smiles": "CC(C)(C)c1ccc(C(=O)Nc2cc(-c3ccccc3)n[nH]2)cc1", "note": "[3i-1247]", "cell viability": "0.955 ± 0.025"}
{"smiles": "Cn1cc(-c2cc(NC(=O)c3ccc(C(C)(C)C)cc3)n[nH]2)ccc1=O", "note": "[3i-1248]", "cell viability": "1 ± 0.035"}
{"tested_on": "DU4475", "test": "cell viability (CellTiter-Glo luminescence) relative to DMSO (fraction of DMSO control); higher = higher signal (more live cells for CellTiter-Glo)", "conditions": "1 µM; 72 h", "protocol": "as §1"}
{"smiles": "CC(C)(C)c1cc(NC(=O)Nc2ccc(-c3cn4c(n3)sc3cc(OCCN5CCOCC5)ccc34)cc2)no1", "note": "[quizartinib]", "cell viability": "0.196 ± 0.052"}
{"smiles": "C=CCCn1cc(-c2cc(C(=O)N3CCOCC3)cc3c2ncn3C)c2cc[nH]c2c1=O", "note": "[GNE-371]", "cell viability": "1.01 ± 0.029"}
{"smiles": "Cc1cc(-c2cc(NC(=O)c3ccc(C(C)(C)C)cc3)[nH]n2)ccn1", "note": "[3i-1246]", "cell viability": "0.966 ± 0.045"}
{"smiles": "CC(C)(C)c1ccc(C(=O)Nc2cc(-c3ccccc3)n[nH]2)cc1", "note": "[3i-1247]", "cell viability": "0.873 ± 0.027"}
{"smiles": "Cn1cc(-c2cc(NC(=O)c3ccc(C(C)(C)C)cc3)n[nH]2)ccc1=O", "note": "[3i-1248]", "cell viability": "0.984 ± 0.043"}
{"tested_on": "DU4475", "test": "cell viability (CellTiter-Glo luminescence) relative to DMSO (fraction of DMSO control); higher = higher signal (more live cells for CellTiter-Glo)", "conditions": "3 µM; 72 h", "protocol": "as §1"}
{"smiles": "CC(C)(C)c1cc(NC(=O)Nc2ccc(-c3cn4c(n3)sc3cc(OCCN5CCOCC5)ccc34)cc2)no1", "note": "[quizartinib]", "cell viability": "0.0647 ± 0.034"}
{"smiles": "C=CCCn1cc(-c2cc(C(=O)N3CCOCC3)cc3c2ncn3C)c2cc[nH]c2c1=O", "note": "[GNE-371]", "cell viability": "1.02 ± 0.027"}
{"smiles": "Cc1cc(-c2cc(NC(=O)c3ccc(C(C)(C)C)cc3)[nH]n2)ccn1", "note": "[3i-1246]", "cell viability": "0.92 ± 0.029"}
{"smiles": "CC(C)(C)c1ccc(C(=O)Nc2cc(-c3ccccc3)n[nH]2)cc1", "note": "[3i-1247]", "cell viability": "0.446 ± 0.053"}
{"smiles": "Cn1cc(-c2cc(NC(=O)c3ccc(C(C)(C)C)cc3)n[nH]2)ccc1=O", "note": "[3i-1248]", "cell viability": "0.893 ± 0.054"}
{"tested_on": "DU4475", "test": "cell viability (CellTiter-Glo luminescence) relative to DMSO (fraction of DMSO control); higher = higher signal (more live cells for CellTiter-Glo)", "conditions": "10 µM; 72 h", "protocol": "as §1"}
{"smiles": "CC(C)(C)c1cc(NC(=O)Nc2ccc(-c3cn4c(n3)sc3cc(OCCN5CCOCC5)ccc34)cc2)no1", "note": "[quizartinib]", "cell viability": "0.317 ± 0.075"}
{"smiles": "C=CCCn1cc(-c2cc(C(=O)N3CCOCC3)cc3c2ncn3C)c2cc[nH]c2c1=O", "note": "[GNE-371]", "cell viability": "1.03 ± 0.036"}
{"smiles": "Cc1cc(-c2cc(NC(=O)c3ccc(C(C)(C)C)cc3)[nH]n2)ccn1", "note": "[3i-1246]", "cell viability": "0.435 ± 0.12"}
{"smiles": "CC(C)(C)c1ccc(C(=O)Nc2cc(-c3ccccc3)n[nH]2)cc1", "note": "[3i-1247]", "cell viability": "0.028 ± 0.0065"}
{"smiles": "Cn1cc(-c2cc(NC(=O)c3ccc(C(C)(C)C)cc3)n[nH]2)ccc1=O", "note": "[3i-1248]", "cell viability": "0.572 ± 0.078"}
{"tested_on": "DU4475", "test": "cell viability (CellTiter-Glo luminescence) relative to DMSO (fraction of DMSO control); higher = higher signal (more live cells for CellTiter-Glo)", "conditions": "30 µM; 72 h", "protocol": "as §1"}
{"smiles": "CC(C)(C)c1cc(NC(=O)Nc2ccc(-c3cn4c(n3)sc3cc(OCCN5CCOCC5)ccc34)cc2)no1", "note": "[quizartinib]", "cell viability": "0.0882 ± 0.042"}
{"smiles": "C=CCCn1cc(-c2cc(C(=O)N3CCOCC3)cc3c2ncn3C)c2cc[nH]c2c1=O", "note": "[GNE-371]", "cell viability": "1.05 ± 0.051"}
{"smiles": "Cc1cc(-c2cc(NC(=O)c3ccc(C(C)(C)C)cc3)[nH]n2)ccn1", "note": "[3i-1246]", "cell viability": "0.00106 ± 0.0011"}
{"smiles": "CC(C)(C)c1ccc(C(=O)Nc2cc(-c3ccccc3)n[nH]2)cc1", "note": "[3i-1247]", "cell viability": "0.00743 ± 0.006"}
{"smiles": "Cn1cc(-c2cc(NC(=O)c3ccc(C(C)(C)C)cc3)n[nH]2)ccc1=O", "note": "[3i-1248]", "cell viability": "0.0157 ± 0.016"}
{"tested_on": "HDQP1", "test": "cell viability (CellTiter-Glo luminescence) relative to DMSO (fraction of DMSO control); higher = higher signal (more live cells for CellTiter-Glo)", "conditions": "0.01 µM; 72 h", "protocol": "as §1"}
{"smiles": "CC(C)(C)c1cc(NC(=O)Nc2ccc(-c3cn4c(n3)sc3cc(OCCN5CCOCC5)ccc34)cc2)no1", "note": "[quizartinib]", "cell viability": "0.984 ± 0.052"}
{"smiles": "C=CCCn1cc(-c2cc(C(=O)N3CCOCC3)cc3c2ncn3C)c2cc[nH]c2c1=O", "note": "[GNE-371]", "cell viability": "1.04 ± 0.04"}
{"smiles": "Cc1cc(-c2cc(NC(=O)c3ccc(C(C)(C)C)cc3)[nH]n2)ccn1", "note": "[3i-1246]", "cell viability": "0.98 ± 0.034"}
{"smiles": "CC(C)(C)c1ccc(C(=O)Nc2cc(-c3ccccc3)n[nH]2)cc1", "note": "[3i-1247]", "cell viability": "0.999 ± 0.019"}
{"smiles": "Cn1cc(-c2cc(NC(=O)c3ccc(C(C)(C)C)cc3)n[nH]2)ccc1=O", "note": "[3i-1248]", "cell viability": "0.995 ± 0.032"}
{"tested_on": "HDQP1", "test": "cell viability (CellTiter-Glo luminescence) relative to DMSO (fraction of DMSO control); higher = higher signal (more live cells for CellTiter-Glo)", "conditions": "0.1 µM; 72 h", "protocol": "as §1"}
{"smiles": "CC(C)(C)c1cc(NC(=O)Nc2ccc(-c3cn4c(n3)sc3cc(OCCN5CCOCC5)ccc34)cc2)no1", "note": "[quizartinib]", "cell viability": "1.01 ± 0.051"}
{"smiles": "C=CCCn1cc(-c2cc(C(=O)N3CCOCC3)cc3c2ncn3C)c2cc[nH]c2c1=O", "note": "[GNE-371]", "cell viability": "1.03 ± 0.047"}
